In ChEMBL document CHEMBL1201862, “PubChem BioAssay data set” (2004):
Active and inactive are the calls of the source.

Assays:
[1] = test system: Streptococcus sp. 'group A'; assay: Streptococcus pyogenes SK(-)GAS viability under kanamycin – luminescence, BacTiterGlo, confirmation, counter-screen for streptokinase expression inhibitor project, dose response (AID 1900); type: functional, organism-based
Streptococcus = assay: GAS UMAA2166 growth inhibition – luminescence, BacTiterGlo, counter-screen for streptokinase expression inhibitor project, dose response (AID 1915); type: functional, organism-based;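 also: potency for reduction of bacterial viability or growth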
Streptokinase A = target: T1, Streptokinase A (Streptococcus pyogenes serotype M1, UniProt P10520); assay: viability-normalized secreted streptokinase activity reduction – plasminogen activation absorbance, OD405, dose response (AID 1914); type: functional, Streptococcus pyogenes M1 GAS;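 also: secreted streptokinase activity via plasminogen activation per viability signal from cell pellet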
T1 sequence (P10520 whole entry): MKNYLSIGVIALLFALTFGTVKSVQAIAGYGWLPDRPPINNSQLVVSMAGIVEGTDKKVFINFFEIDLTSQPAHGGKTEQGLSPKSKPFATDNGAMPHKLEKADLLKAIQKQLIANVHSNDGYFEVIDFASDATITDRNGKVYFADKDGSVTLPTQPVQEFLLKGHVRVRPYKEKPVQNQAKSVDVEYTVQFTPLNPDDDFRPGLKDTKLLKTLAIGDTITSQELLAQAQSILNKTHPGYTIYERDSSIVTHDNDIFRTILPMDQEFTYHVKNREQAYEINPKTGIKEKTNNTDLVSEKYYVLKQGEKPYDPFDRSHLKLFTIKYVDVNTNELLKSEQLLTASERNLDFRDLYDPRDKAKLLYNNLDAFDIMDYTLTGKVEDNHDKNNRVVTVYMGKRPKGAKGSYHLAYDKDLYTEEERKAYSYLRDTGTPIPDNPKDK

[2] = viability of uninfected HEp-2 cells – cell-based, HTS, cytotoxicity control for RSV inhibitor project, dose response (AID 2410); type: functional; details: human respiratory syncytial virus
Vero = assay: cells; type: functional; details: Chlorocebus sabaeus
Cytochrome P450 2C9 = Cytochrome P450 2C9 (Homo sapiens, UniProt P11712)
[3] = target: Eukaryotic translation initiation factor 4E (Mus musculus, UniProt P63073); assay: blockers of eIF4G binding by eIF4E – biochemical, TR-FRET, dose response (AID 855); type: functional;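 also: potency for disrupting eIF4E binding to eIF4GI seen as loss of FRET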
Cytochrome P450 1A2 = target: T2, Cytochrome P450 1A2 (Homo sapiens, UniProt P05177);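 also: PubChem cytochrome P450 panel assay, CYP1A2 panel member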
T2 sequence (P05177 whole entry): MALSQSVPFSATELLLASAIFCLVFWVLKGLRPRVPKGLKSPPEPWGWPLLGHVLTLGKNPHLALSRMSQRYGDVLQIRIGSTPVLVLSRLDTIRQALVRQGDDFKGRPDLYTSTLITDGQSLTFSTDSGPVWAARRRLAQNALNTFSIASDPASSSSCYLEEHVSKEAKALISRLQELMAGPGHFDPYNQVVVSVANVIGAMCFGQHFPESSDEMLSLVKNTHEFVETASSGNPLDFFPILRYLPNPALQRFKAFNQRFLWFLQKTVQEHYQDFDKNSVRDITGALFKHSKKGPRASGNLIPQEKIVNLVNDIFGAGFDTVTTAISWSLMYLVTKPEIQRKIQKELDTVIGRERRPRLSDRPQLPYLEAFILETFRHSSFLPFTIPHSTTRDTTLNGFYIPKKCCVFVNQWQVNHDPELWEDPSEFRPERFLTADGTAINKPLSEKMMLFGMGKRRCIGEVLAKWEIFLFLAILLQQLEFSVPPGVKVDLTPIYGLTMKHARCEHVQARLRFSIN

[4] = target: T3, Polyadenylate-binding protein 1 (Homo sapiens, UniProt P11940); assay: MLLE domain peptide-binding blockers, IC50 – biochemical, fluorescence polarization, FITC-PAM2 peptide, dose response (AID 602259); type: functional; details: read-out: IC50_Mean
[5] = target: T4, Sentrin-specific protease 6 (Homo sapiens, UniProt Q9GZR1); type: functional;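 also: Luminescence-based dose-response confirmatory assay of SENP6 inhibition, following up an ultra-high-throughput screen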
T4 sequence (Q9GZR1 whole entry): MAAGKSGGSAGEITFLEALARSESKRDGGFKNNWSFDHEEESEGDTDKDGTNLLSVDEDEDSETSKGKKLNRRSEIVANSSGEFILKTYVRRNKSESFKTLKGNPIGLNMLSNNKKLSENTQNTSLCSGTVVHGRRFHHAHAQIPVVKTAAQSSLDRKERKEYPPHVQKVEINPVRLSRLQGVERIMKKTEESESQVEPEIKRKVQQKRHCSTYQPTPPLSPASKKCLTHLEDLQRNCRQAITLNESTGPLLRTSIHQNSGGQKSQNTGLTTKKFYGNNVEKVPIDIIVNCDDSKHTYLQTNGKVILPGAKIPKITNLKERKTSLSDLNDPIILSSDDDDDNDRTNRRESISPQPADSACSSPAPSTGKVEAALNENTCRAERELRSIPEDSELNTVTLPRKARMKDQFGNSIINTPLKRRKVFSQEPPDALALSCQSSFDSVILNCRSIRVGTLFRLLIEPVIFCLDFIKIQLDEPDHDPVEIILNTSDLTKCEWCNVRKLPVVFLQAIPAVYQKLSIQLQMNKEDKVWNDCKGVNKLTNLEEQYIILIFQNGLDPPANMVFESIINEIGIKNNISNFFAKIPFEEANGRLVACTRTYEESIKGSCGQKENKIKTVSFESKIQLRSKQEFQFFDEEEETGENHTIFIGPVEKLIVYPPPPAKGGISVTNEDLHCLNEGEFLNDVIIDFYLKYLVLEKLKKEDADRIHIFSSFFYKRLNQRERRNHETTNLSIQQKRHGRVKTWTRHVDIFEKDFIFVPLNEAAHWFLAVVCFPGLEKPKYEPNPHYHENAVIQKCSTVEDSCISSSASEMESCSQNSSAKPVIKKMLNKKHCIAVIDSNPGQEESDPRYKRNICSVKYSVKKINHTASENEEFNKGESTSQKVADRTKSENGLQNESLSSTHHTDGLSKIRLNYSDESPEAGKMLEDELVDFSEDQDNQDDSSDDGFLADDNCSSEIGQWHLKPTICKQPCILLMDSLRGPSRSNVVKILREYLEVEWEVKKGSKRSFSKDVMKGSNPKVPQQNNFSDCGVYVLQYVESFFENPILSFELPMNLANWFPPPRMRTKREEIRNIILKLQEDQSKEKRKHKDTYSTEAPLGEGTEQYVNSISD

[6] = target: T5, Sentrin-specific protease 8 (Homo sapiens, UniProt Q96LD8); type: functional;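 also: luminescence read-out of SENP8 inhibition, dose-response confirmation following an ultra-high-throughput screen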
T5 sequence (Q96LD8 whole entry): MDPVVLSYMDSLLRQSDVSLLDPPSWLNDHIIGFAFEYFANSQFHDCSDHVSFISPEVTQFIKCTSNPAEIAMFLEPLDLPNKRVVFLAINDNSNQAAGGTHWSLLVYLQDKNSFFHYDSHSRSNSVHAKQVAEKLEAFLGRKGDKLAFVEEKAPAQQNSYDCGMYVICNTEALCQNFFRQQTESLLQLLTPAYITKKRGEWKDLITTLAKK

[7] = target: T6, Sentrin-specific protease 7 (Homo sapiens, UniProt Q9BQF6); type: functional;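 also: Luminescence-based dose-response confirmation of ultra-high-throughput screening hits, measuring inhibition of SENP7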
T6 sequence (Q9BQF6 whole entry): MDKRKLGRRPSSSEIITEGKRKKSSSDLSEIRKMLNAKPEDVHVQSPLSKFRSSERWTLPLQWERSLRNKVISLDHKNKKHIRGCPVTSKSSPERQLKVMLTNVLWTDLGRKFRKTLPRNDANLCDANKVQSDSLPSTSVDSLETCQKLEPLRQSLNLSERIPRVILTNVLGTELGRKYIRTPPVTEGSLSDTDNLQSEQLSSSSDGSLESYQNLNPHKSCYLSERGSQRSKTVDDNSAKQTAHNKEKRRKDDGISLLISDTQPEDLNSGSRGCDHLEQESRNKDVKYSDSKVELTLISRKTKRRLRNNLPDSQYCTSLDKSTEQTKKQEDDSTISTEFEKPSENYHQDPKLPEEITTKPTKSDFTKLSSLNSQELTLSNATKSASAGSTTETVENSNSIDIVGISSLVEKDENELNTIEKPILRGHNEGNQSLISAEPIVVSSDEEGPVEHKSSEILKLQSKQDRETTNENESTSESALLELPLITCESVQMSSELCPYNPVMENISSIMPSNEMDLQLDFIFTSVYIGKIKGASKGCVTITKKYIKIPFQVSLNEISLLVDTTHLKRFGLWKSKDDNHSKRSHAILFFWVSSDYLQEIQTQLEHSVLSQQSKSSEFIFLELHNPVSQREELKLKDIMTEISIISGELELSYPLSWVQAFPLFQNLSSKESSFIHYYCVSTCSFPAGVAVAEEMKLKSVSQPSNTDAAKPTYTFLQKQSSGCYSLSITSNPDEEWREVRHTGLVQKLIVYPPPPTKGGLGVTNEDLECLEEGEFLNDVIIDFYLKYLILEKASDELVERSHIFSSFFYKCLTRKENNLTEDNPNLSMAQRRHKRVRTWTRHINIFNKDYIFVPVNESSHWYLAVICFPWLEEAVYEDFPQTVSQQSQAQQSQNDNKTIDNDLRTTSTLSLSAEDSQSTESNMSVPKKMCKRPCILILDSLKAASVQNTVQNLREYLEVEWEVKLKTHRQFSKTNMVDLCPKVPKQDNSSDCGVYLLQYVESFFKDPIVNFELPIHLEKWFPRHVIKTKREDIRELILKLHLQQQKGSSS

[8] = target: T3, Polyadenylate-binding protein 1; assay: MLLE binding blockers, Cy5 peptide tracer – biochemical, fluorescence polarization, Cy5-PAM2 peptide, secondary, miRNA deadenylation inhibitor project, dose response (AID 602260); type: functional; details: read-out: IC50_Mean
Caspase-3 = target: T7, Caspase-3 (Homo sapiens, UniProt P42574); type: functional;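 also: Dose-response selectivity test against caspase-3 for candidate inhibitors of sentrin-specific proteases (SENPs)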
T7 sequence (P42574 whole entry): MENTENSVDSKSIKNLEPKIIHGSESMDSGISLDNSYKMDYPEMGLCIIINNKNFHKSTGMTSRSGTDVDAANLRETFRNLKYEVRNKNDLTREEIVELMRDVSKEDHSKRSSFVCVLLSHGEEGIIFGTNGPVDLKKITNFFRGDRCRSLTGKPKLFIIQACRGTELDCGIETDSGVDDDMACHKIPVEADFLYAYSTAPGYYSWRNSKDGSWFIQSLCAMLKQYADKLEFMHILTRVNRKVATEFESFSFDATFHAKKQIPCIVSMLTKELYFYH

Cytochrome P450 2D6 = Cytochrome P450 2D6 (Homo sapiens, UniProt P10635);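 also: CYP2D6 member of a cytochrome P450 panel assay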
[9] = target: T8, Calpain-2 catalytic subunit (Sus scrofa, UniProt P43367); assay: m-calpain protease blockers, concentration series – biochemical, fluorogenic peptide substrate, dose response (AID 1420); type: functional
T8 sequence (P43367 whole entry): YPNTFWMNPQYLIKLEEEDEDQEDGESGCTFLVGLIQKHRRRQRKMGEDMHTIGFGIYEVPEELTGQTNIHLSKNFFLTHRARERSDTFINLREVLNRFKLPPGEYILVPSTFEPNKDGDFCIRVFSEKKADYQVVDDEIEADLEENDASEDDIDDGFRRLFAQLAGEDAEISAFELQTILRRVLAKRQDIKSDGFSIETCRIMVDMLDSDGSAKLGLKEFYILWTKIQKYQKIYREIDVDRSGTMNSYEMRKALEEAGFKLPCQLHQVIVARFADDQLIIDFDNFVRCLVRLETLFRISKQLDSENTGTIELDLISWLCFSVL

Genome polyprotein = Genome polyprotein (dengue virus type 2, UniProt P29990); assay: flavivirus cap methylation enzyme inhibition – biochemical, confirmation dose response, primary screen (AID 588689); type: functional
[10] = intracellular Trypanosoma cruzi inhibitors in host cells – cell-based, plate reader, cherry-pick samples, set 3, dose response (AID 651818); type: functional;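 also: compounds incubated with infected cells for about four days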

Sequence of Genome polyprotein (P29990 2492-3391 limits assumed): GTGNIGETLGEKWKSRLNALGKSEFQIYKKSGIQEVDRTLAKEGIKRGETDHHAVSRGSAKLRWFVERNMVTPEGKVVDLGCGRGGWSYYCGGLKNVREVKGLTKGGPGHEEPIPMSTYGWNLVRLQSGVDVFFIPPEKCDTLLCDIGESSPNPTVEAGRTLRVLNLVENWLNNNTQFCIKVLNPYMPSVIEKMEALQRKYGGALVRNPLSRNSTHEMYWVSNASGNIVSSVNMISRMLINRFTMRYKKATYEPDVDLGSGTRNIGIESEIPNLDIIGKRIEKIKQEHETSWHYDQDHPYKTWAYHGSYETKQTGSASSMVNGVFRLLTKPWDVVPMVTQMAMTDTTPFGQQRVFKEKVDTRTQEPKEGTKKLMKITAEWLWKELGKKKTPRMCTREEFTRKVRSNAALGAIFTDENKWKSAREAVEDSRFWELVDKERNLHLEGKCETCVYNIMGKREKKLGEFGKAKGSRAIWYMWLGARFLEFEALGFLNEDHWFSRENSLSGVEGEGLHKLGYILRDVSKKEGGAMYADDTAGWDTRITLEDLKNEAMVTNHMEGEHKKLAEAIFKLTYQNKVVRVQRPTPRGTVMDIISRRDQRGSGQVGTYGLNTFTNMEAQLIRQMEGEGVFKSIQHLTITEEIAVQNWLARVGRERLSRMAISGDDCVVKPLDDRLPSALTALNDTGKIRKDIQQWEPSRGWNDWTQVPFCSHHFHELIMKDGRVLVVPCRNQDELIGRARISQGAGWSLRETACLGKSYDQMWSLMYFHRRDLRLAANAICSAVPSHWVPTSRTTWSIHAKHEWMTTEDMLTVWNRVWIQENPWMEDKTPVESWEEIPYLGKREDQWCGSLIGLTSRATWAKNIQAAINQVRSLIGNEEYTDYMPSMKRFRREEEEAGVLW
T3 sequence (P11940 whole entry, the tested form may be a part): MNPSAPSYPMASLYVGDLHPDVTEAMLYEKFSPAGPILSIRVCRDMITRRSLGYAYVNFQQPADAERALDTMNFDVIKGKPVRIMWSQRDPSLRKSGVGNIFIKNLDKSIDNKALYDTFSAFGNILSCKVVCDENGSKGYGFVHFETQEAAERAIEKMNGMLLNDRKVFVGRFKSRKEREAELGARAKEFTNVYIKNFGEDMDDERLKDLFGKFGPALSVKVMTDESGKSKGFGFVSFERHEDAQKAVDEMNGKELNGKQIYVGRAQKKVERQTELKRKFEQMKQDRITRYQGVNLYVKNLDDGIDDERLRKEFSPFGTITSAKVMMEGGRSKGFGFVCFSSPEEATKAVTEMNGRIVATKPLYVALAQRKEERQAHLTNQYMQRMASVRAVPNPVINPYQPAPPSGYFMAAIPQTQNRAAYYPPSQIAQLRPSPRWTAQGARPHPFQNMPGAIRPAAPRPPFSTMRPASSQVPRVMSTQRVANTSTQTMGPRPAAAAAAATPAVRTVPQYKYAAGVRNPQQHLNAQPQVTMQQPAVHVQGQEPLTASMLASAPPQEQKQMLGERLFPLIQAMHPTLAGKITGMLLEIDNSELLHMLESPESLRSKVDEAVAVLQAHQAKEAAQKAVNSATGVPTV
Sequence of Cytochrome P450 2C9 (P11712 whole entry): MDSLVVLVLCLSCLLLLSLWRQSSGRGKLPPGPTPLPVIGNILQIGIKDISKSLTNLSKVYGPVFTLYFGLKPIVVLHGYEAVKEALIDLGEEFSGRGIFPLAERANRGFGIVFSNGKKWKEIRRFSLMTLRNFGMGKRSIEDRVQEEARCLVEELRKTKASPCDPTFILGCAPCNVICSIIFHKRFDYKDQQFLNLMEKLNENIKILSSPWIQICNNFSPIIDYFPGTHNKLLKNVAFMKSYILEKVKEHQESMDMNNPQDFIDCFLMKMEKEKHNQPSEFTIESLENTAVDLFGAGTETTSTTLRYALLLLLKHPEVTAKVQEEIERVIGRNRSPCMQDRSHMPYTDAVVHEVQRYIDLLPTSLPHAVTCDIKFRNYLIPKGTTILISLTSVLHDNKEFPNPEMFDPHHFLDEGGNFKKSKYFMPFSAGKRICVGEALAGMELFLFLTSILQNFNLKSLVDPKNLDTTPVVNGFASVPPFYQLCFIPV
Sequence of Cytochrome P450 2D6 (P10635 whole entry): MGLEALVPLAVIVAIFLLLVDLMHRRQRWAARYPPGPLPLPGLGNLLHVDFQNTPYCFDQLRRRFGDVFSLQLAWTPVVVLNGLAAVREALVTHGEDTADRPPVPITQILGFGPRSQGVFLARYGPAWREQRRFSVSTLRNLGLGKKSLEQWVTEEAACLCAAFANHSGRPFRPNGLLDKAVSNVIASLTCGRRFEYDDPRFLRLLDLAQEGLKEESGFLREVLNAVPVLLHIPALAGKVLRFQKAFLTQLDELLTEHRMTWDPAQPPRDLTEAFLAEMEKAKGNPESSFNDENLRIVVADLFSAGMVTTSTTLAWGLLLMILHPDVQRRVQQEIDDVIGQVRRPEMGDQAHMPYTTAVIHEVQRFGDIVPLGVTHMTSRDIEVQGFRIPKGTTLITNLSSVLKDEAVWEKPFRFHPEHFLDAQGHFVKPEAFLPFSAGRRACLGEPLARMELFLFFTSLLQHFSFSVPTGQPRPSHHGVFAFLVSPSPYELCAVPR
Sequence of Eukaryotic translation initiation factor 4E (P63073 whole entry): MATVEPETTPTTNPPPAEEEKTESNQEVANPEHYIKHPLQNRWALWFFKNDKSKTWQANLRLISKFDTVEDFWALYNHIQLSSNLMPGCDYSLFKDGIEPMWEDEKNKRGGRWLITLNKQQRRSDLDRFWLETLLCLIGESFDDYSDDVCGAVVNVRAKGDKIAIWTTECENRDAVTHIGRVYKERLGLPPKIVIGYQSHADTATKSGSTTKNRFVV

## COc1ccc2oc(=O)c(-c3csc(Nc4ccc(O)cc4)n3)cc2c1
[1]
  EC50: 7.11 µM (active)
Streptococcus
  EC50: 13.8 µM (active)
Streptokinase A
  EC50: > 150 µM (not active)
[2]
  CC50: 38.5 µM (active)
Vero
  CC50: 13.3 µM (active)

## COc1cccc(/C=C2\SC(=S)N(CCC(=O)NC3C=CS(=O)(=O)C3)C2=O)c1 (centres undefined)
Vero
  CC50: 23.8 µM (active)

## Cc1cccc(-n2cnc(C(=O)NC3CCCCCC3)c2)n1
Cytochrome P450 2C9
  AC50: inconclusive
[3]
  IC50: > 64 µM (inactive)
Cytochrome P450 1A2
  AC50: 11.2 µM (inconclusive)

## COc1cccc(-c2nc(=S)c3c(o2)CCCC3)c1
[4]
  IC50: > 66 µM (inactive)
[5]
  IC50: 20.5 µM (active)
[6]
  IC50: 27.4 µM (active)
[7]
  IC50: 8.32 µM (active)
[8]
  IC50: > 66 µM (inactive)
Caspase-3
  IC50: 24.9 µM (active)

## C#CCN1C(=O)S/C(=C\c2ccc(-c3ccc(Cl)c(C(=O)O)c3)o2)C1=O
[1]
  EC50: 2.41 µM (active)
Streptococcus
  EC50: 5.9 µM (active)
[5]
  IC50: 11.6 µM (active)
[6]
  IC50: 14.9 µM (active)
[7]
  IC50: 7.59 µM (active)
Caspase-3
  IC50: 29.6 µM (active)

## O=C(CCN1C(=O)C2C3C=CC(C3)C2C1=O)NCCN1CCCc2ccccc21 (centres undefined)
Cytochrome P450 2D6
  AC50: 22.4 µM (inconclusive)
Cytochrome P450 2C9
  AC50: inconclusive
Cytochrome P450 1A2
  AC50: 10 µM (inconclusive)

## COc1ccc(C(=N)NOC(=O)C2CCCCC2)cc1
[5]
  IC50: 29.6 µM (active)
[6]
  IC50: 44.1 µM (active)
[7]
  IC50: 9.16 µM (active)
Caspase-3
  IC50: 28.4 µM (active)

## Cc1cc(C(=O)Nc2ccc(N3CCCC3)c(Cl)c2)ccc1[N+](=O)[O-]
[5]
  IC50: > 100 µM (inactive)
[6]
  IC50: > 100 µM (inactive)
[7]
  IC50: 5.48 µM (active)
Caspase-3
  IC50: 28.2 µM (active)
[9]
  IC50: 2.99 µM (not active)

## O=C1NC(=O)N(c2ccc(F)cc2)C(=O)/C1=C/c1ccc(N2CCOCC2)cc1
Genome polyprotein
  IC50: > 100 µM (active)

## CCOC(=O)c1c(C)oc2c1cc(NS(=O)(=O)c1ccc(C(=O)O)cc1)c1ccccc12
Genome polyprotein
  IC50: 73.8 µM (active)

## COc1ccc(NC(=O)Nc2ccc3c(c2)C(=O)N([C@H](C)CO)C[C@H](C)[C@H](CN(C)Cc2ccc(Cl)c(Cl)c2)OCCCC[C@@H](C)O3)cc1
[10]
  AC50: 7.11 µM (active)

## C[C@H](CO)N1C[C@H](C)[C@H](CN(C)Cc2ccc(C(=O)Nc3ccccc3N)cc2)Oc2ccc(NC(=O)Nc3ccc4c(c3)OCO4)cc2CC1=O
[10]
  AC50: 2.08 µM (active)

## C[C@@H]1CCCCO[C@@H](CN(C)CC2CCCCC2)[C@@H](C)CN([C@H](C)CO)C(=O)c2cc(NC(=O)Nc3ccccc3)ccc2O1
[10]
  AC50: 2.55 µM (active)

## O=[N+]([O-])c1ccc(O)c(/C=N/c2ccc3c(c2)OCO3)c1
Genome polyprotein
  IC50: 41.9 µM (active)
